Activity calls are given as the source filed them.
Key:
Trypsin = Trypsin (Sus scrofa, UniProt P00761); assay: porcine trypsin inhibitors, dose response, selectivity assay for Rce1 protease inhibitor project, biochemical, quenched peptide fluorescence, cherry-pick (AID 488789)
[1] = target: Melanin-concentrating hormone receptor 1 (Homo sapiens, UniProt Q99705); assay: Late-stage fluorescence-based counterscreen for antagonists of the G-protein coupled receptor 7 (GPR7): cell-based dose response assay to identify antagonists of the melanin-concentrating hormone receptor 1 (MCHR1). [Related pubchem assays (depositor defined):AID1861, AID1880, AID1952, AID2148, AID2251, AID2257, AID485339]; format: functional;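 note: stimulated with 30 nM MCH peptide agonist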
Melanin-concentrating hormone receptor 1, sequence (Q99705 whole entry): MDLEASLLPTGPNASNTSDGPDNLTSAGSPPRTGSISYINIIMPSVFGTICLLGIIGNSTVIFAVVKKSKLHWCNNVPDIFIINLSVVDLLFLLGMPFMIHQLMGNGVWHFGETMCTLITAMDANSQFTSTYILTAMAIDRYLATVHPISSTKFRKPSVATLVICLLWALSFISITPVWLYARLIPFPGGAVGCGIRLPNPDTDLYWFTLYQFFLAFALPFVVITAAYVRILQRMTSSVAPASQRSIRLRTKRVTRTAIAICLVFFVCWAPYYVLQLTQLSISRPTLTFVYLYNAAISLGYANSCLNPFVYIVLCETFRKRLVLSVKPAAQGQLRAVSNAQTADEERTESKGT

[2] = target: T1, Neuropeptides B/W receptor type 1 (Homo sapiens, UniProt P48145); assay: GPR7 antagonist potency, late-stage follow-up, cell-based, fluorescence, dose response (AID 463251); format: functional
T1 sequence (P48145 whole entry): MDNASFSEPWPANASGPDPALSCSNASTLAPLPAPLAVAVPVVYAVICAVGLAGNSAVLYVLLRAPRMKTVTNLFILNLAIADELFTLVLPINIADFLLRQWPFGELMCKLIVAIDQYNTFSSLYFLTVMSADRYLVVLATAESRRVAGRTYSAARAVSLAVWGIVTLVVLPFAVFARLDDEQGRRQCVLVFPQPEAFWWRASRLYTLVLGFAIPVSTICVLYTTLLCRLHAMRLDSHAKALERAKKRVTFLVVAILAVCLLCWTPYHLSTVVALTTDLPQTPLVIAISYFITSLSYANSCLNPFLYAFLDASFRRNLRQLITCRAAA

[3] = nmpC-GFP reporter inhibition in S. Typhimurium, dose response, counter-screen for PhoP regulon inhibitor project, purified and synthesized compounds, set 2 (AID 2834); format: functional
[4] = NIH-3T3 fibroblast cytotoxicity, dose response, cytotoxicity control, cell-based, fluorescence, Alamar Blue, secondary assay (AID 2327); format: functional;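 note: NIH-3T3 mouse fibroblasts cultured with fluconazole at 8 µg/mL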
BJ [5] = assay: cytotoxicity toward BJ-TERT fibroblasts, dose response, cell-based, RAS-independent, luminescence (AID 1933); format: functional; details: Homo sapiens
H4 = assay: Luminescence Cell-Based Dose Response HTS to Identify Activators of 5'UTR Stem-Loop Driven Prion Protein mRNA Translation in H4 Neuroglioblastoma Cells. [Related pubchem assays: 1829 (Project Summary), 1814 (Primary HTS)]; format: functional; details: Homo sapiens
Vero [6] = assay: host cell cytotoxicity of antiviral hits, dose response, cytotoxicity control for West Nile virus antiviral project, secondary assay (AID 1650); format: functional; details: Chlorocebus sabaeus
BJ [7] = assay: cells; format: functional, cell-based; details: Homo sapiens
[8] = C. albicans growth with fluconazole, confirmation, fluorescence, retest (AID 2467); format: functional, cell-based
[9] = target: T2, Serine/threonine-protein phosphatase (Candida dubliniensis (strain CD36 / CBS 7987 / NCPF 3949 / NRRLY-17841) (Yeast), UniProt B9W6M3); assay: calcineurin pathway inhibitors in yeast reporter, dose response, S. cerevisiae, CDRE-lacZ, luminescence, secondary (AID 2388); format: functional, cell-based;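 note: yeast reporter cells carrying a calcineurin-responsive lacZ construct stimulated with calcium chloride; luminescent beta-galactosidase reporter signal in whole cells rather than isolated phosphatase activity; potency for inhibition where a drop in reporter signal means calcineurin blockade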
T2 sequence (B9W6M3 whole entry): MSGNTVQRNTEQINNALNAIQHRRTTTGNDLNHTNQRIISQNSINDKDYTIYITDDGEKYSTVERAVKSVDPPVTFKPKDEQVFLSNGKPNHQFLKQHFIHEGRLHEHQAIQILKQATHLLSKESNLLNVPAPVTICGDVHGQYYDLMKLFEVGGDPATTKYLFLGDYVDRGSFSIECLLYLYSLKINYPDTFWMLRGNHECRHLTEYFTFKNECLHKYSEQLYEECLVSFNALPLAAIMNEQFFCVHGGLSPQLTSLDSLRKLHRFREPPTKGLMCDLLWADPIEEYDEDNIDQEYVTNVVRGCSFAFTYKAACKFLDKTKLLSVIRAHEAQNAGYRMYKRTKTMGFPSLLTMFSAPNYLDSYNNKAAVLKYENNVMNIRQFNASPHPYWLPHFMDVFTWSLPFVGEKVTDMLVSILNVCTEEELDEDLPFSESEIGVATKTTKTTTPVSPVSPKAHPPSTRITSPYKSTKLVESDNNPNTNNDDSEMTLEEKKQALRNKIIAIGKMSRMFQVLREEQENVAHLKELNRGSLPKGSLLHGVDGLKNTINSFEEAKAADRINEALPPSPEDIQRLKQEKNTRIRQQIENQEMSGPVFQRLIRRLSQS

BJ [10] = assay: cytotoxicity toward BJ-TERT-LT-ST fibroblasts, dose response, cell-based, RAS-independent, luminescence (AID 1935); format: functional; details: Homo sapiens;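 note: BJ fibroblasts immortalized with TERT plus LT and ST oncogenes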
[11] = cytotoxicity toward DRD oncogenic fibroblasts, dose response, cell-based, non-viral oncogenic, luminescence (AID 1934); format: functional; details: Homo sapiens
[12] = target: NACHT, LRR and PYD domains-containing protein 3 (Homo sapiens, UniProt Q96P20); assay: NALP3 inhibitors in yeast, dose response, luminescent (AID 488799); format: functional
NACHT, LRR and PYD domains-containing protein 3, sequence (Q96P20 whole entry, the tested form may be a part): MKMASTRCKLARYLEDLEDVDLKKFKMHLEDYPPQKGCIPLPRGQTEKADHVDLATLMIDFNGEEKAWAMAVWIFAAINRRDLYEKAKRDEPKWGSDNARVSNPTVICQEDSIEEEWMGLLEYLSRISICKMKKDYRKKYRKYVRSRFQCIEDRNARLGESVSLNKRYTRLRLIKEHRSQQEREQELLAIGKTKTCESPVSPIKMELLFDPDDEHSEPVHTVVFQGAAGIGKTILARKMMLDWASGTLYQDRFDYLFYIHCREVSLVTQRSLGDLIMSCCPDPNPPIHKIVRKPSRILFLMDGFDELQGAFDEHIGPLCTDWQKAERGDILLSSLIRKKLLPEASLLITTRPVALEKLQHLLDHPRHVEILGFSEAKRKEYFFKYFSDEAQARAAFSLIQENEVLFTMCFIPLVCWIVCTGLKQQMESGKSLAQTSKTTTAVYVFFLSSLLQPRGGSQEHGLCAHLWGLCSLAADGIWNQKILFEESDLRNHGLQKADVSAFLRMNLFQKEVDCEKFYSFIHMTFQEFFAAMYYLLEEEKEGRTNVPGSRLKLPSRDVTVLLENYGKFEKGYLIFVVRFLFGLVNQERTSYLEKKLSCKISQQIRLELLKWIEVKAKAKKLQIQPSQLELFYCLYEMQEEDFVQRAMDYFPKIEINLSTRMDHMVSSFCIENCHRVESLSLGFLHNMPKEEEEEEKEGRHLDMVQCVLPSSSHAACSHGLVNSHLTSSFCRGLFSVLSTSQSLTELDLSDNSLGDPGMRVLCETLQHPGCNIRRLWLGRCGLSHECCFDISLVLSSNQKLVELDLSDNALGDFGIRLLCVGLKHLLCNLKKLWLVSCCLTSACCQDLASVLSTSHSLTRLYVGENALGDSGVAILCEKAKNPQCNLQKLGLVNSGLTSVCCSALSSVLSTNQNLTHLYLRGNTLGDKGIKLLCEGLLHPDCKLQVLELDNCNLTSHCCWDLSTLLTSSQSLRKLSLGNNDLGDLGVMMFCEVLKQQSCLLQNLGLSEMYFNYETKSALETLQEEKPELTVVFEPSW

Jurkat = assay: antigen receptor-induced NF-kB inhibitors, dose response, Jurkat, luciferase reporter, luminescence, B- and T-cell (AID 489004); format: functional, cell-based; details: Homo sapiens;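 note: NF-kB luciferase reporter Jurkat cells stimulated with PMA plus ionomycin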
[13] = cytotoxicity in HEK-293T NF-kB-Luc cells, dose response, cytotoxicity control for B/T-cell NF-kB inhibitor project, cell-based, uHTS hits (AID 489019); format: functional;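 note: IC50 reflects cytotoxicity as loss of cell viability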
Vero [14] = assay: cells; format: functional; details: Chlorocebus sabaeus
[15] = Shn3 3'UTR reporter inhibitors, dose response, cell-based, Clone20 osteoblasts, firefly luciferase, cherry-picked (AID 624132); format: functional;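 note: firefly luciferase luminescence from reporter carrying the Shn3 3'UTR in osteoblasts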
[16] = HepG2 cell cytotoxicity, dose response, cytotoxicity control for Shn3 inhibitor project, CellTiter-Glo, cherry-picked (AID 624134); format: functional, cell-based
[17] = control 3'UTR Renilla luciferase suppression, dose response, counter-screen for Shn3 inhibitor project, cell-based, Clone20-Shn3RL, cherry-picked (AID 624133); format: functional

Trypsin, sequence (P00761 whole entry): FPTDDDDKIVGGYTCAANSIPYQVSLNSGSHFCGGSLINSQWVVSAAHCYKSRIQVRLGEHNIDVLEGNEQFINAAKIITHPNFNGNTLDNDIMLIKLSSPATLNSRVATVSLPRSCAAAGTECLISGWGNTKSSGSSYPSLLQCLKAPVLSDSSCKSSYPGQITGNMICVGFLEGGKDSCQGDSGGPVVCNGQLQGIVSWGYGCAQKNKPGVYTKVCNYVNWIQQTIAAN

Cc1ccc(C(=O)N2N=C(c3ccccc3O)CC2c2ccccc2)cc1 (stereo not given)
AC50 (Trypsin): 67.6 µM (active)

COc1ccc(Oc2c(Cl)cnn(-c3ccc(I)cc3)c2=O)cc1
IC50 [1]: 4.7 µM (active) | IC50 [2]: 1 µM (active)

O=C1C2=C(Nc3ccccc3SC2c2ccc(I)cc2)c2ccccc21 (stereo not given)
IC50 [3]: 232 µM (active)

C[C@@H]1C[C@@H]2O[C@H]2/C=C\C=C\C(=O)Cc2c(Cl)c(O)cc(O)c2C(=O)O1
EC50 [4]: 44.5 µM (inconclusive) | EC50 (BJ [5]): 21 µM (active) | EC50 (H4): > 120 µM (not active) | CC50 (Vero [6]): 3.11 µM (active) | EC50 (BJ [7]): 309 nM (active) | EC50 [8]: 49 nM (active) | EC50 [9]: > 180 µM (inactive) | EC50 (BJ [10]): 1.81 µM (active) | EC50 [11]: 2.08 µM (active) | IC50 [12]: 8.41 µM (active) | IC50 (Jurkat): 210 nM (active) | IC50 [13]: > 80 µM (inactive) | CC50 (Vero [14]): 15.8 µM (active) | AC50 [15]: 6.4 µM (active) | AC50 [16]: 49.8 µM (active) | AC50 [17]: 12.3 µM (active)
